PMC12198407, “Preclinical and first-in-human of purinostat mesylate, a novel selective HDAC I/IIb inhibitor, in relapsed/refractory multiple myeloma and lymphoma” (Signal Transduction and Targeted Therapy, 2025)
Where two headings read alike, the source gives them in different places.

Legend:
[1] = test system: human multiple myeloma RPMI-8226; format: in vivo
[2] = test system: human liver cells; experiment: Cytotoxicity on donor liver cells; format: cell-based
[3] = molecular target: HDAC2 (Homo sapiens, UniProt Q92769); experiment: HDAC enzyme activity in vitro; format: biochemical
[4] = Metabolites in dog plasma; format: in vivo, Beagle dogs; settings: male and female dogs
Text: Four metabolites of Purinostat Mesylate were detected in plasma samples from both male and female dogs, namely M4 (MW = 636.66, unknown product), M8 (MW = 474.52, reduction product), M13 (MW = 505.54, methylation product), and M16 (MW = 475.50, hydrolysis product). The primary metabolic pathways involved hydrolysis, methylation, and reduction, with no significant gender differences observed. The parent compound, Purinostat Mesylate, accounted for more than 35% of the UV absorption peak area in the plasma samples from both male and female dogs, indicating it is one of the major components. Purinostat Mesylate is primarily metabolized in the plasma of male and female dogs through hydrolysis, methylation, and reduction pathways. A possible metabolic pathway structure diagram is shown below: […]

[5] = test system: solid tumor cells; experiment: Proliferation, MTT or Alamar Blue; format: cell-based; settings: Homo sapiens
[6] = Pharmacokinetics and tissue distribution in Ighmyc mice; format: in vivo
Text: In B cell-related tumors, the mechanism of disease often involves the translocation of the MYC oncogene to the immunoglobulin promoter region, leading to its hyperactivation. The translocation of the MYC gene to the IGH enhancer (t(8;14) (q24;q32)) is a molecular hallmark of Burkitt lymphoma. The Ighmyc (Eμ-myc) mouse model successfully mimics this pathogenic mechanism by translocating the MYC oncogene to the immunoglobulin μ enhancer. […] We isolated bone marrow and enlarged spleen from diseased Ighmyc mice and transplanted them into normal C57 mice via tail vein injection to induce a primary B cell lymphoma model. This study aims to investigate the pharmacokinetic characteristics and tissue distribution of Purinostat Mesylate in plasma and target organs in the context of primary B cell lymphoma.
The mean residence times (MRT) were 6.00 ± 1.00 h, 24.8 ± 1.03 h, and 23.4 ± 3.59 h, respectively. […] However, in Ighmyc mice, the plasma drug concentration after the same duration was 7.11 ± 3.15 ng/mL. […] The pharmacokinetic characteristics support the notion that spaced dosing of the drug can still maintain favorable pharmacodynamic outcomes.

[7] = molecular target: HDAC7 (Homo sapiens, UniProt Q8WUI4); experiment: HDAC enzyme activity in vitro; format: biochemical
[8] = molecular target: T1, CYP3A4 (Homo sapiens, UniProt P08684); experiment: CYP inhibition, human liver microsomes; format: in vitro ADME
T1 construct: human liver microsomal cytochrome P450 isoenzymes; from tissue; host or cells: human liver microsomes

[9] = test system: cMYC-KRAS12V plasmacytoma; experiment: cMYC-KRAS12V primary plasmacytoma (PCT) mouse model; format: in vivo, BALB/c mice
Experimental: The cMYC-KRAS12V-induced plasmacytoma mouse model in BALB/c (GemPharmatech Co., Ltd., Nanjing, China) was established as previously described.[33] On day 28 or 35 post bone marrow transplantation, recipients received various treatments. The 5TMM mouse model was established as previously described.[55] The 5TGM1-luc cells were intravenously injected into 6-week-old C57BL/KawRij mice (Harlan Co. Netherlands) with 2 × 10^6 cells per mouse. After three weeks, mice were treated with vehicle or PM 10 mg/kg. Serum Ca^2+ levels were monitored weekly for three weeks after the start of administration. Kaplan-Meier survival curves were generated for each treatment group. Additionally, the 5TMM mouse model studying PM’s effects on immune response and bone destruction involved randomizing mice into vehicle and PM (10 mg/kg) groups one week after inoculation. T cell subsets were analyzed by flow cytometry 24 h after a single dose and 1 month after vehicle or PM treatment. The mice were sacrificed after 1 month of treatment, and the bone destruction was detected by Micro-CT.

[10] = test system: Raji-luc; experiment: Luciferase substrate viability assay; format: cell-based, human
[11] = test system: mouse B-cell lymphoma; experiment: Ighmyc transgenic B-cell lymphoma model, survival; format: in vivo, mice
[12] = molecular target: T2, CYP2B6 (Homo sapiens, UniProt P20813); experiment: CYP inhibition, human liver microsomes; format: in vitro ADME
T2 construct: human liver microsomal cytochrome P450 isoenzymes; from tissue; host or cells: human liver microsomes

[13] = test system: CYP1A2; experiment: CYP induction, cryopreserved human liver cells; format: in vitro ADME; settings: 0.0500, 0.500, 5.00 µM; three donors
[14] = in vivo
Text: According to the "Guidelines for the Clinical Trial of Antineoplastic Drugs," for cytotoxic agents, the maximum recommended starting dose (MRSD) can be determined as one-tenth of the maximum tolerated dose (MTD) in rodent studies or one-sixth of the MTD in non-rodent species, expressed in mg/m². For some non-cytotoxic antineoplastic agents, due to their relatively lower toxicity, the starting dose for single administration in Phase I clinical trials can be calculated using one-fifth of the No Observed Adverse Effect Level (NOAEL) from non-rodent studies, or higher.
The Pharmacological Active Dose (PAD) based on mice is used to predict the minimum dose that may produce the expected pharmacological effect in humans.

[15] = test system: human Burkitt lymphoma Daudi; experiment: Daudi subcutaneous tumor model; format: in vivo, NOD/SCID mice; settings: for average median survival time: satellite group

T1 sequence (P08684 whole entry): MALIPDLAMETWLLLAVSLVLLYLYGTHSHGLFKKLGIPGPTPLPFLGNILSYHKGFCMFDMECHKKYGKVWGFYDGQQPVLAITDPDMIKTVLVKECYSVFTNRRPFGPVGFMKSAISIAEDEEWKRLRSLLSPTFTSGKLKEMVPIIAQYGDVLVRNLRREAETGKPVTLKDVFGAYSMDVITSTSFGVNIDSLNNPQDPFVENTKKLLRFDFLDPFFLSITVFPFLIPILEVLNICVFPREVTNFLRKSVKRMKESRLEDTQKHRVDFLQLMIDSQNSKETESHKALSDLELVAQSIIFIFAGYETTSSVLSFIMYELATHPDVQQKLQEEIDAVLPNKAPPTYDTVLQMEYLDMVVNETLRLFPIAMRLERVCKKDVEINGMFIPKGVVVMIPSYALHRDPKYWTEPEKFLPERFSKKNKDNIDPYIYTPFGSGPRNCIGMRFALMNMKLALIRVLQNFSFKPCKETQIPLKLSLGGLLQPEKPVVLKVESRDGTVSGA
T2 sequence (P20813 whole entry): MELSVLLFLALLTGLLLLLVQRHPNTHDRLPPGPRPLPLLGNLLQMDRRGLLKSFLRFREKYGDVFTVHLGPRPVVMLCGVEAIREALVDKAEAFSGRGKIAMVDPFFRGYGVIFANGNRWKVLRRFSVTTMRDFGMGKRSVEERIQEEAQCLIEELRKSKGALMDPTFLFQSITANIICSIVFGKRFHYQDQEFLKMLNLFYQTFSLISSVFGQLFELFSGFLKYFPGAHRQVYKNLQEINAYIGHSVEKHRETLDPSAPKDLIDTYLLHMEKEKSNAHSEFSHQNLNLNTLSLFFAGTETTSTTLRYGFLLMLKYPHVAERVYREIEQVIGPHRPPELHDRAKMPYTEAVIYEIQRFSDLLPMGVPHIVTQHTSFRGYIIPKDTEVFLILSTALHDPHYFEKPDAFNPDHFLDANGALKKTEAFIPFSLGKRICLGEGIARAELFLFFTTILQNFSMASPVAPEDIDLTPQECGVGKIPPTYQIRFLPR
Sequence of HDAC2 (Q92769 whole entry): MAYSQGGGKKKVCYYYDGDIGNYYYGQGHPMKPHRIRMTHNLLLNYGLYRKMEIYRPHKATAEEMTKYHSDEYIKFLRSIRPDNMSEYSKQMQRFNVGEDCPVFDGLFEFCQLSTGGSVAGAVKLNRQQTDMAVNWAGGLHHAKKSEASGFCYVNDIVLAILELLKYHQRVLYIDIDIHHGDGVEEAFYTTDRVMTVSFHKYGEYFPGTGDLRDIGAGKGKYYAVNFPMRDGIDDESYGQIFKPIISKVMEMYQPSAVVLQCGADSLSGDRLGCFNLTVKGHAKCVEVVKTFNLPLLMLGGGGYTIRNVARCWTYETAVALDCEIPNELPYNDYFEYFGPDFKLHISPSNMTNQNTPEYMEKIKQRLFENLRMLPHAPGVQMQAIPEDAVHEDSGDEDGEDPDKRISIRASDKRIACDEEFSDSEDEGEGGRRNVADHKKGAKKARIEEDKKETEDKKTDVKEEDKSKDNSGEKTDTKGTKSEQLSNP
Sequence of HDAC7 (Q8WUI4 whole entry): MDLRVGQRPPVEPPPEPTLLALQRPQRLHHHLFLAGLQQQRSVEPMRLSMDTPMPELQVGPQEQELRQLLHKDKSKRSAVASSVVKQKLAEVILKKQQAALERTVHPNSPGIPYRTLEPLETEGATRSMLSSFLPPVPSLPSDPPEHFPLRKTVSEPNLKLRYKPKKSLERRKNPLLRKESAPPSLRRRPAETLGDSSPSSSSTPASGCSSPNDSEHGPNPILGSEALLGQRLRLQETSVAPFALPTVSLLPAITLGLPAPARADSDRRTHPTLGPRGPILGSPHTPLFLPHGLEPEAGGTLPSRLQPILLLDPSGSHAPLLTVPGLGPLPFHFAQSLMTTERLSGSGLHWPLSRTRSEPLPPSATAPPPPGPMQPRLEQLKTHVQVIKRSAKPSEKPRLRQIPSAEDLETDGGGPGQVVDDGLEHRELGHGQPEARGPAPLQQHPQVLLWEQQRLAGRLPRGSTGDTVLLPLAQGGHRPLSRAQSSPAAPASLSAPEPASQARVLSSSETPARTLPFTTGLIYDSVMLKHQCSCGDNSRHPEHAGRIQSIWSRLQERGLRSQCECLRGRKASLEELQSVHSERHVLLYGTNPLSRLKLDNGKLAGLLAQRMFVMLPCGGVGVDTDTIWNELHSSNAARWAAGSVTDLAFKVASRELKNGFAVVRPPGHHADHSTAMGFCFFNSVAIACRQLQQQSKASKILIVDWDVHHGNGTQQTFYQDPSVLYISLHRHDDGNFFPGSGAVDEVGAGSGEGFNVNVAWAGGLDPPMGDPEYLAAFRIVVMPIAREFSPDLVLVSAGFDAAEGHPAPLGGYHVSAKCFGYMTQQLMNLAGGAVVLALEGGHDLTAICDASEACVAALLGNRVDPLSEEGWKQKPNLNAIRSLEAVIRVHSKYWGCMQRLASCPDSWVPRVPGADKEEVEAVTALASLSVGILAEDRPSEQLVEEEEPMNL

Compound: CN(Cc1nc2c(N3CCOCC3)nc(-c3ccc(N)cc3)nc2n1C)c1ncc(C(=O)NO)cn1.CS(=O)(=O)O [PM, 2-(((2-(4-Aminophenyl)-9-methyl-6-(4-morpholinyl)-9H-purine-8-yl)methyl)methylamino)-N-hydroxy-5-pyrimidine-carboxamide Mesylate]
- T/C ([1]; 1.25 mg/kg): 13.9%
- tumor inhibition rate ([1]; 1.25 mg/kg): 81.61%
- T/C ([1]; 2.5 mg/kg): 6.6%
- tumor inhibition rate ([1]; 2.5 mg/kg): 92.33%
- T/C ([1]; 5 mg/kg): 2.7%
- tumor inhibition rate ([1]; 5 mg/kg): 97.77%
- T/C ([1]; 10 mg/kg): 2.2%
- tumor inhibition rate ([1]; 10 mg/kg): 97.77%
- median survival time ([1]; satellite groups, PM 5 mg/kg alone or combined, control regimens): 67.5 days
- cytotoxicity on donor liver cells [2]: exhibited cytotoxic effects on donor liver cells at concentrations up to 5.00 μM
- IC50 [3]: 0.0014 µM
- share of UV absorption peak area in plasma samples [4]: more than 35%
- IC50 ([5]; all lines): < 0.1 µM
- IC50 ([5]; most tumor cell lines): < 0.05 µM
- abnormal B220+/IgM- cell population in peripheral blood ([6]; 48 hours after single i.v. 5 mg/kg, untreated 48.9%): about 18.8%
- AUC(0-t) ([6]; Ighmyc (Eμ-myc), mouse, lymph node, iv, single i.v. 5 mg/kg, read-out: lymph node AUC(0-72h)): 16.1 ± 2.04 µg·h/mL
- Cmax ([6]; Ighmyc (Eμ-myc), mouse, lymph nodes, iv, single i.v. 5 mg/kg, read-out: Cmax in lymph nodes): 0.578 ± 0.153 µg/mL
- MRT ([6]; Ighmyc (Eμ-myc), mouse, lymph nodes, iv, single i.v. 5 mg/kg, read-out: MRT in lymph nodes): 23.4 ± 3.59 h
- half-life ([6]; Ighmyc (Eμ-myc), mouse, lymph nodes, iv, single i.v. 5 mg/kg, read-out: T1/2 in lymph nodes (converted)): 21.9 ± 10.2 h
- concentration at 48 h ([6]; Ighmyc (Eμ-myc), mouse, lymph nodes, iv, single i.v. 5 mg/kg, read-out: concentration in lymph nodes at 48 hours): 0.178 ± 0.046 µg/mL
- Cmax ([6]; Ighmyc (Eμ-myc), mouse, plasma, iv, single i.v. 5 mg/kg, read-out: Cmax in plasma): 0.304 ± 0.277 µg/mL
- MRT ([6]; Ighmyc (Eμ-myc), mouse, plasma, iv, single i.v. 5 mg/kg, read-out: MRT in plasma): 6 ± 1 h
- half-life ([6]; Ighmyc (Eμ-myc), mouse, plasma, iv, single i.v. 5 mg/kg, read-out: T1/2 in plasma (converted)): 12.2 ± 2.1 h
- AUC(0-t) ([6]; Ighmyc (Eμ-myc), mouse, plasma, iv, single i.v. 5 mg/kg, read-out: plasma AUC(0-48h)): 0.875 ± 0.437 µg·h/mL
- concentration at 24 h ([6]; Ighmyc (Eμ-myc), mouse, plasma, iv, single i.v. 5 mg/kg, read-out: plasma drug concentration at 24 hours): 0.00711 ± 0.00315 µg/mL
- Cmax ([6]; Ighmyc (Eμ-myc), mouse, spleen, iv, single i.v. 5 mg/kg, read-out: Cmax in spleen): 0.41 ± 0.0699 µg/mL
- MRT ([6]; Ighmyc (Eμ-myc), mouse, spleen, iv, single i.v. 5 mg/kg, read-out: MRT in spleen): 24.8 ± 1.03 h
- half-life ([6]; Ighmyc (Eμ-myc), mouse, spleen, iv, single i.v. 5 mg/kg, read-out: T1/2 in spleen (converted)): 20.8 ± 7.94 h
- concentration at 48 h ([6]; Ighmyc (Eμ-myc), mouse, spleen, iv, single i.v. 5 mg/kg, read-out: concentration in spleen at 48 hours): 0.134 ± 0.0185 µg/mL
- AUC(0-t) ([6]; Ighmyc (Eμ-myc), mouse, spleen, iv, single i.v. 5 mg/kg, read-out: spleen AUC(0-72h)): 12.5 ± 0.244 µg·h/mL
- plasma drug concentration at 24 hours ([6]; single i.v. 5 mg/kg, listed as Purinostat Mesylate, 5 mg/kg): 0.00711 µg/mL
- IC50 [7]: 0.59 µM
- IC50 ([8]; midazolam as the substrate): > 10 µM
- IC50 ([8]; testosterone as the substrate): 1.13 µM
- median survival time (MST) ([9]; 5 mg/kg, vehicle 47 days): 68 days
- median survival time (MST) ([9]; more severe PCT model, from day 35, PM 10 mg/kg, regimens per Table S9): 59 days
- time until effect detectable [10]: 36 h
- median survival time ([11]; 2.5 mg/kg, solvent control 10.5 days): 19.5 days
- median survival time ([11]; 5 mg/kg): 23 days
- median survival time ([11]; 10 mg/kg): 22.5 days
- IC50 [12]: > 10 µM
- induction of CYP1A2 [13]: did not act as an inducer
- NOAEL ([14]; beagle, dog): < 0.3 mg/kg
- NOAEL ([14]; rat): < 3 mg/kg
- T/C ([15]; 2.5 mg/kg): 17.75±2.47%
- tumor inhibition rate ([15]; 2.5 mg/kg, mean of two batches): 82.84 ± 2.18%
- T/C ([15]; 5 mg/kg): 10.40±2.97%
- tumor inhibition rate ([15]; 5 mg/kg): 87.86 ± 2.38%
- T/C ([15]; 10 mg/kg): 7.35±3.75%
- tumor inhibition rate ([15]; 10 mg/kg): 90.86 ± 3.84%
- median survival time ([15]; 20 mg/kg, paused day 28, resumed day 35): 54.4 days
- average median survival time ([15]; 5 mg/kg): 54.5 ± 5.0 days
- average median survival time ([15]; 10 mg/kg): 58.5 ± 2.1 days
